We go through 17 molecules from PMC4457358, “Structure–activity studies in the development of a hydrazone based inhibitor of adipose-triglyceride lipase (ATGL)” (Bioorganic & Medicinal Chemistry, 2015).

One series deals with T1, murine ATGL (Mus musculus, UniProt Q8BJ56).
T1 construct: expressed in transfected cells; host or cells: COS-7 (ATCC CRL-1651), transient transfection with Metafectene; crude lysate after 1000 x g spin
T1 sequence (Q8BJ56 1-486): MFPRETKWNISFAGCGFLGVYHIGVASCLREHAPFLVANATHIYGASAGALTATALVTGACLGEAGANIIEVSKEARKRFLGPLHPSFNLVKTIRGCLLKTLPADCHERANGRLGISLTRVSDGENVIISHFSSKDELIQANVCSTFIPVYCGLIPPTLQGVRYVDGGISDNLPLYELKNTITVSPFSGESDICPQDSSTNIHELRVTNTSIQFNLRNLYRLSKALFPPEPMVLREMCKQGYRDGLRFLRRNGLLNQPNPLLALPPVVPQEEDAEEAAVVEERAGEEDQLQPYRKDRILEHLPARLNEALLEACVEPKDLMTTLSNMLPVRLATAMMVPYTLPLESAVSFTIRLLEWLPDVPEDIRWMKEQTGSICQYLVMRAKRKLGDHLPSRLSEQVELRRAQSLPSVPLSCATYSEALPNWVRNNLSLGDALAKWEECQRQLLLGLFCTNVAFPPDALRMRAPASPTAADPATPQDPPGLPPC
As to the kind of experiment: Triglyceride hydrolase activity assay with COS7-cell lysate overexpressing recombinant murine ATGL, radiolabelled triolein substrate.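 As to all read-outs here: radioactivity from the triolein substrate quantified by liquid scintillation counting after phase separation, reflecting triglyceride hydrolase activity of murine ATGL in lysates of transfected COS-7 cells.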 It is filed as biochemical. Details: IC50 (%): unit not given here. The following applies: for inhibition at 200 µM: 1 h, read-out: I200 (%); for inhibition at 200 µM / I200 (%): ATGL-inhibition efficiency at 200 μM inhibitor; for IC50 / biological activity against ATGL (in words): COS7-cell lysate overexpressing murine ATGL; for IC50 (%): COS7-cell lysate overexpressing recombinant murine ATGL, increasing inhibitor concentrations.

Procedure for murine ATGL: All synthesized test compounds were screened for their efficiency to inhibit ATGL activity in vitro in an assay using radiolabelled triolein as substrate.[20] As ATGL cannot be purified, the assays were performed with COS7-cell lysates from cells overexpressing recombinant murine ATGL. For the determination of the IC50-value inhibitors were administered with increasing concentrations to the enzyme and its substrate. To determine the ATGL-inhibition efficiency at 200 μM (I200), 200 μM inhibitor was administered to the enzyme and its substrate.
For the determination of TG hydrolase activity cell lysates of COS-7 cells overexpressing recombinant murine ATGL were used. Therefore, monkey embryonic kidney cells (Cos-7; ATCC CRL-1651) were cultivated in Dulbeccos modified eagles medium (DMEM, GIBCO, Invitrogen Corp., Carlsbad, CA), containing 10% fetal calf serum (FCS, Sigma–Aldrich) and antibiotics (100 IU/mL penicillin and 100 μg/mL streptomycin) at standard conditions (37 °C, 5% CO2, 95% humidified atmosphere). Cells were transfected with 1 μg DNA complexed to Metafectene (Biontex GmbH, Munich, Germany) in serum free DMEM. After 4 h the medium was replaced by DMEM supplemented with 10% FCS. For the preparation of cell lysates, cells were washed with 1× phosphate buffered saline, collected using a cell scraper, and disrupted in buffer A (0.25 M sucrose, 1 mM EDTA, 1 mM dithiothreitol, 20 μg/mL leupeptine, 2 μg/mL antipain, 1 μg/mL pepstatin, pH 7.0) by sonication (Virsonic 475, Virtis, Gardiner, NJ). Nuclei and unbroken cells were removed by centrifugation (1000×g, 4 °C, for 10 min). Protein concentration of the cell lysates were determined by Bio-Rad protein assay according to the manufacturer’s protocol (Bio-Rad 785, Bio-Rad Laboratories, Munich, Germany), using BSA as standard.
The triolein (TO) substrate was prepared as described. […] In brief, 330 μM triolein (40,000 cpm/nmol) (GE Healthcare) was emulsified with 45 μM phosphatidylcholine/phosphatidylinositol (3:1) (Sigma) in 100 mM potassium phosphate buffer (pH 7.0) by sonication (Virsonic 475, Virtis) and was adjusted to 5% (w/v) fatty acid free bovine serum albumin (BSA, Sigma). 100 μL (20 μg protein) cell lysate or 2 μl purified recombinant LPL (Sigma–Aldrich) were incubated with 100 μL TO substrate in the presence or in the absence of inhibitors in a water bath for 1 h at 37 °C. After incubation, the reaction was terminated by adding 3.25 mL of methanol/chloroform/heptane (10:9:7) and 1 mL of 0.1 M potassium carbonate, 0.1 M boric acid (pH 10.5). After centrifugation (800 g, 15 min), the radioactivity in 1 mL of the upper phase was determined by liquid scintillation counting.

In turn, `Oc1ccc(/C=N/N2CCN(Cc3ccccc3)CC2)c(O)c1` [Compound 3d, (E)-4-((4-Benzylpiperazin-1-ylimino)methyl)benzene-1,3-diol] showed a melting point of 225 to 228 °C. Besides, the inhibition at 200 µM on murine ATGL came out at 48%.
In turn, `Fc1ccc(/C=N/N2CCN(c3ccccc3)CC2)cc1F` [Compound 1m, (E)-N-(3,4-Difluorobenzylidene)-4-phenylpiperazin-1-amine] had a melting point of 152 to 154 °C. Besides, on murine ATGL, the inhibition at 200 µM was found to be 67% and the IC50 was found to be 75 µM.
On to “(E)-4-Phenyl-N-(4-propoxybenzylidene)piperazin-1-amine [Compound 1i]”, for which, at murine ATGL, the “I200 (%)” value came to 14% and the “IC50 (%)” value was above 200.
Take `Cc1ccc(/C=N/N2CCN(c3ccccc3)CC2)cc1` [Compound 1t, (E)-N-(4-Methylbenzylidene)-4-phenylpiperazin-1-amine]: the melting point lay in the range of 184 to 186 °C. Besides, on murine ATGL, the inhibition at 200 µM came to 22% and the “biological activity against ATGL (in words)” value was “inactive”.
Consider `Oc1ccc(/C=N/N2CCC(Cc3ccccc3)CC2)c(O)c1` [Compound 3i, (E)-4-((4-benzylpiperidine-1-ylimino)methyl)benzene-1,3-diol], for which the melting point fell in the range of 138 to 141 °C. In addition, at murine ATGL, the inhibition at 200 µM came to 26%.
In turn, `O=C(Oc1ccc(F)c(F)c1)N1CCN(c2ccccc2)CC1` [Compound 14, 3,4-Difluorophenyl-4-phenylpiperazin-1-carboxylate] had a melting point of 94 to 96 °C. On murine ATGL, the inhibition at 200 µM amounted to 57% and the 50% inhibitory concentration (IC50) worked out at 110 µM.
In the case of `Cc1cccc(N2CCN(/N=C/c3ccc(O)cc3O)CC2)c1` [Compound 3c, (E)-4-((4-m-Tolylpiperazin-1-ylimino)methyl)benzene-1,3-diol], the inhibition at 200 µM at murine ATGL was found to be 44%.
With `CN(C)c1ccc(/C=N/N2CCN(c3ccccc3)CC2)cc1` [Compound 1u, (E)-N-(4-(Dimethylamino)benzylidene)-4-phenylpiperazin-1-amine], the melting point was 190 °C (dec.). Moreover, the inhibition at 200 µM at murine ATGL came to 5%.
On to `CCCC/C=N/N1CCN(c2ccccc2)CC1` [Compound 2a, (E)-N-Pentyliden-4-phenylpiperazin-1-amine], for which the inhibition at 200 µM at murine ATGL is 12%.
With `CN(CCO)c1ccc(/C=N/N2CCN(c3ccccc3)CC2)cc1` [Compound 1w, (E)-2-(Methyl(4-((4-phenylpiperazin-1-ylimino)methyl)phenyl)amino)ethanol], the inhibition at 200 µM on murine ATGL is 5%.
Take `COc1ccc(C(=O)NN2CCN(c3ccccc3)CC2)cc1OC` [Compound 10, 3,4-Dimethoxy-N-(4-phenylpiperazin-1-yl)benzamide]: at murine ATGL, the inhibition at 200 µM amounted to 38% and the “biological activity against ATGL (in words)” value was “inactive”.
Consider `Oc1ccc(/C=N/N2CCCN(c3ccccc3)CC2)c(O)c1` [Compound 3j, (E)-4-((4-Phenyl-1,4-diazepan-1-ylimino)methyl)benzene-1,3-diol], for which the inhibition at 200 µM at murine ATGL came to 87%.
As for “(E)-N-(4-Phenoxybenzylidene)-4-phenylpiperazin-1-amine [Compound 1j]”, at murine ATGL, the “I200 (%)” value is given as 24% and the “IC50 (%)” value is above 200.
For `N#Cc1ccc(/C=N/N2CCN(c3ccccc3)CC2)cc1` [Compound 1s, (E)-4-((4-Phenylpiperazin-1-ylimino)methyl)benzonitrile], on murine ATGL, the inhibition at 200 µM came to 76% and the IC50 turned out to be 50 µM.
For `COc1cc(/C=N/N2CCN(c3ccccc3)CC2)ccc1O` [Compound 1d, (E)-2-Methoxy-4-((4-phenylpiperazin-1-ylimino)methyl)phenol], the inhibition at 200 µM at murine ATGL was 82%.
Turning to “(E)-3-((4-Phenylpiperazin-1-ylimino)methyl)benzonitrile [Compound 1r]”, at murine ATGL, the “I200 (%)” value is reported as 60% and the “IC50 (%)” value is recorded as 120.
`CC(=O)Nc1ccc(/C=N/N2CCN(c3ccccc3)CC2)cc1` [Compound 1v, (E)-N-(4-((4-Phenylpiperazin-1-ylimino)methyl)phenyl)acetamide]: the inhibition at 200 µM on murine ATGL was 14%.
